Experimental data taken from patent publication US20230404928A1, “NANOCAPSULE AND USES THEREOF” (CHINA MEDICAL UNIVERSITY, priority 2022, published 2023).

Legend:
[1] = drug release behavior study (rtPA release); assay type: physicochemical; conditions: in the first hour
Method: To measure the loading of rtPA (rtPA-FANC=(MTDS)) in FANC, analysis using […] protein analysis (BCA) was performed. The encapsulation efficiency (EE) of rtPA in FANC is 73.94% and the loading capacity (LC) is 22.49%. To observe the rtPA release rate of FANC, further drug release behavior studies were conducted. […] This slower release behavior can effectively protect rtPA from metabolic effects and reduce the damage caused in the blood circulation system.

[2] = thrombolysis time and cerebral blood flow after MCAO; assay type: in vivo, mice; conditions: thrombus not completely dissolved
MACO mice = assay: as above; assay type: in vivo
[3] = tested on: neural precursor cells (NPCs); assay: Ki-67 immunohistochemistry of brain sections (NPC proliferation, SVZ and HDG); assay type: in vivo, mice; conditions: SVZ and HDG areas, versus saline control
Description: FIGS. 9A to 9D show representative images of Ki-67 staining after MTDS with MN treatment in comparison with saline control, free rt-PA, MTDS in SVZ area (FIG. 9A) and HDG area (FIG. 9B). (Scale bar=50 μm). Quantitative data of NPCs by immunohistochemistry staining in SVZ area (FIG. 9C) (Ki-67^+ cells) and HDG area (FIG. 9D) (Ki-67^+ cells).
The subventricular zone (SVZ) and hippocampal dentate gyrus (DG) are known to trigger the activation of resting neural precursor cells (NPCs) when the brain suffers from ischemic injury. NPCs mainly reside in the SVZ, while the DG has the ability to differentiate into a range of neurons and glial cells.

## recombinant tissue-type plasminogen activator [rtPA]
[1]
  rtPA release: more than 60%
[2]
  CBF recovery, maximum: ≤ 90%
MACO mice; FIG. 8a, right MCA images
  thrombolytic activity: able to dissolve the thrombus
MACO mice; rtPA 10 mg kg^−1
  time to partial thrombolysis: approximately 80 minutes
MACO mice; within 120 minutes, rtPA 10 mg kg^−1
  blood flow restored (CBF): approximately 80%
[3]
  number of Ki-67^+ cells: no significant difference
